Measurements from PubChem BioAssay AID651940 (Sanford-Burnham Center for Chemical Genomics, 2012).
Calls of active or inactive are those of the source.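 Rule for the calls: active = IC50 below 50 µM, and active in both the human and murine receptor assays; inactive = the rest.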

Each compound was assayed against C-X-C chemokine receptor type 6 (Mus musculus) (UniProt Q9EQ16) (assay: mouse CXCR6 receptor antagonists, SAR follow-up, selectivity assay for human CXCR6 antagonist project, cell-based, mouse ortholog, CHO-K1, luminescence (AID 651940)). Details: CHO-K1 mCXCR6 beta-arrestin PathHunter.
Sequence of C-X-C chemokine receptor type 6 (Mus musculus) (Q9EQ16 whole entry, looked up): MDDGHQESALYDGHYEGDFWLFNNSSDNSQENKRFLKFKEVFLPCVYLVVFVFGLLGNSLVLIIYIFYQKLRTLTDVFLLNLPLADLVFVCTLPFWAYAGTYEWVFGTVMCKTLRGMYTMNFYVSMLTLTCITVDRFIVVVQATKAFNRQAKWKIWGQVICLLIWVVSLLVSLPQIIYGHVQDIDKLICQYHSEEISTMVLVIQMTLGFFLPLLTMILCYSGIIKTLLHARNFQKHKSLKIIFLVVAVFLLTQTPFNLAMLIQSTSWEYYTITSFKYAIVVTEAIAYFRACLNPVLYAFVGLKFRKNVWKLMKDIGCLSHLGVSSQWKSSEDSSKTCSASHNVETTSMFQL

| SMILES | IC50 |
| --- | --- |
| COc1cc(C(=O)NC2CC3CCCC(C2)N3CC(=O)Nc2ccccc2)cc(OC)c1OC (configuration not stated) | > 79 µM (inactive) |
| COc1ccccc1NC(=O)CN1C2CCCC1CC(NC(=O)c1cc(OC)c(OC)c(OC)c1)C2 (configuration not stated) | > 79 µM (inactive) |
| COc1cc(C(=O)NC2CC3CCCC(C2)N3CC(=O)Nc2ccc(C)cc2)cc(OC)c1OC (configuration not stated) | inactive |
| COc1cc(C(=O)NC2CC3CCCC(C2)N3CC(=O)Nc2ccc(F)cc2)cc(OC)c1OC (configuration not stated) | > 79 µM (inactive) |
| COc1ccc(NC(=O)CN2C3CCCC2CC(NC(=O)c2cc(OC)c(OC)c(OC)c2)C3)cc1 (configuration not stated) | > 79 µM (inactive) |
| COc1ccc(CN2C3CCCC2CC(NC(=O)c2cc(OC)c(OC)c(OC)c2)C3)cc1 (configuration not stated) | > 79 µM (inactive) |
| COc1cc(C(=O)NC2CC3CCCC(C2)N3CC(=O)Nc2ccc(Cl)cc2)cc(OC)c1OC (configuration not stated) | > 79 µM (inactive) |
